Molecules are shown by their SMILES. Entries after “also recorded” stand apart in the source; their conditions may differ. Structures can show the parent of a compound that is named as a salt.

These results are taken from US10238630B2, “Use of eribulin and poly (ADP ribose) polymerase (PARP) inhibitors as combination therapy for the treatment of cancer” (Eisai R&D Management Co., Ltd., priority 2014, dated 2019).

The subject of test [1] is MDA-MB-231 human breast cancer xenografts. Briefly: Antitumor activity against subcutaneous MDA-MB-231 human breast cancer xenografts in athymic mice (two studies). It counts as in vivo. How it is done:
MDA-MB-231 human triple negative breast cancer cells are wild type for BRCA1 and 2 and PTEN. Cells were maintained in monolayer cultures in RPMI-1640 growth medium supplemented with 10% fetal bovine serum at 37° C. in a 5% CO2 humidified incubator. On the day of inoculation, cells were harvested by trypsinization, washed, and resuspended in ice-cold PBS. Female immunodeficient athymic mice were inoculated subcutaneously near the right axillary area with MDA-MB-231 cells (5×10^6) in a 1:1 ratio (50 μL each) with Matrigel™ in a volume of 0.1 mL in phosphate buffered saline, using a 26-gauge needle. A total of 94 mice, approximately 6 weeks old were implanted with MDA-MB-231 cells.
E7449, carboplatin and E7389 were evaluated as single agents and in combination for antitumor activity against MDA-MB-231 human breast cancer xenografts in athymic mice. The first experiment consisted of a vehicle control group, an E7449 single agent group, 2 groups treated with single agent E7389 and 2 combination drug-treated groups (Table 5). Thirty-nine mice were inoculated with MDA-MB-231 cells and on Day 21 following implantation, tumor volumes were measured and mice were randomized into the 6 treatment groups based on tumor volume (average of 300 mm^3). Following randomization drug treatment was initiated. Each group was composed of 5 mice for a total of 30 mice on the first day of treatment. E7449 was formulated in 0.5% methyl cellulose and orally administered once daily for 28 days at 100 mg/kg based on body weight at 0.1 mL per 10 g. E7389 was formulated in saline and was intravenously administered once every 4 days, 4 times (Day 21, 25, 29, and 33) at a dosage of 0.05 or 0.1 mg/kg as single agent or in combination with E7449, based on body weight at 0.1 mL per 10 g. The control group was treated with oral vehicle (0.5% methyl cellulose in water) daily and intravenous vehicle (saline) once every 4 days, 4 times. E7449 or vehicle was administered first and when dosing of all animals was complete E7389 was administered to animals receiving the combination.
The second experiment consisted of a vehicle control group, 2 groups treated with single agent E7449, 2 groups treated with single agent carboplatin and 3 combination drug-treated groups (Table 6). Fifty five mice were inoculated with MDA-MB-231 cells and on Day 18 following implantation, tumor volumes were measured and mice were randomized into 8 treatment groups based on tumor volume (average of 300 mm^3). Following randomization drug treatment was initiated. Each group consisted of 5 mice for a total of 40 mice on the first day of treatment. E7449, formulated in 0.5% methyl cellulose was orally administered daily for 28 days, at 60 or 100 mg/kg based on body weight at 0.1 mL per 10 g. Carboplatin was formulated in saline and was intravenously administered once on the first day of treatment (Day 18) at a dosage of 15 or 60 mg/kg as a single agent or in combination with E7449 based on body weight at 0.1 mL per 10 g. The control group was treated with oral vehicle (0.5% methyl cellulose in water) daily and intravenous vehicle (saline) once on Day 18. E7449 or vehicle was administered first and when dosing of all animals was complete carboplatin was administered to animals receiving the combination.
Drug treatment was initiated 21 or 18 days post tumor implantation, in the E7389 and carboplatin combination studies respectively, and continued for 28 days. […]
(Xenograft models place foreign cells or tissue in a host animal.)

Test [2] concerns MDA-MB-468 human breast cancer xenografts. Description: Antitumor activity against subcutaneous MDA-MB-468 human breast cancer xenografts in athymic mice. Format: in vivo. How it is done: MDA-MB-468 human triple negative breast cancer cells are wild type for BRCA1 and 2 and PTEN null. Cells were maintained in monolayer cultures in RPMI-1640 growth medium supplemented with 10% fetal bovine serum at 37° C. in a 5% CO2 humidified incubator. On the day of inoculation, cells were harvested by trypsinization, washed, and resuspended in ice-cold PBS. Female immunodeficient athymic mice were inoculated subcutaneously near the right axillary area with MDA-MB-468 cells (5×10^6) in a 1:1 ratio (50 μL each) with matrigel in a volume of 0.1 mL in phosphate buffered saline using a 26-gauge needle. A total of 60 mice, approximately 8 weeks old were implanted with MDA-MB-468 cells.
E7449 and E7389 were evaluated as single agents and in combination for antitumor activity against MDA-MB-468 human breast cancer xenografts in athymic mice. The experiment consisted of a vehicle control group, an E7449 single agent group, two groups treated with single agent E7389 and 2 combination drug-treated groups (Table 4). Sixty mice were inoculated with MDA-MB-468 cells. On day 7 following implantation, tumor volumes were measured and mice were randomized into the 6 treatment groups based on tumor volume (average of 180 mm^3). Following randomization drug treatment was initiated. Each group was composed of 6 mice for a total of 36 mice on the first day of treatment. E7449 was formulated in 0.5% methyl cellulose and orally administered daily at 100 mg/kg based on body weight at 0.1 mL per 10 g. E7449 was administered once daily for 28 days (starting on Day 7) as a single agent or in combination. E7389 was formulated in saline and was intravenously administered once every 4 days, 3 times (Day 7, 11, and 15) at a dosage of 0.1 or 0.4 mg/kg as single agent or in combination with E7449, based on body weight at 0.1 mL per 10 g. The control group was treated with oral vehicle (0.5% methyl cellulose in water) daily and intravenous vehicle (saline) once every 4 days, 3 times. E7449 or vehicle was administered first and when dosing of all animals was complete, E7389 was administered to animals receiving the combination.
Drug treatment was initiated 7 days post tumor implantation and continued for 28 days. Animals whose tumor measurement reached […] at the longest axis or whose tumor became ulcerated were euthanized prior to study termination. The study was terminated on Day 52. Statistical analysis was performed on Days 35 and 52.
Statistical analysis of the vehicle group (A) versus the drug-treated groups (B, C, D, E, and F) was performed by a one way analysis of variance (ANOVA) for tumor volume followed by Dunnett's multiple comparisons test. The analysis was performed at vehicle endpoint on Day 35 of the study. […]

Take `O=c1[nH]nc2c3c(cccc13)N=C(CN1Cc3ccccc3C1)N2` [E7449]: the “antitumor effect (tumor volume)” value is on record as “did not significantly inhibit tumor growth; also recorded: No antitumor activity” in test [1] (E7389 combination study, E7449 100 mg/kg PO QDx28, single agent, 100 mg/kg); “did not significantly inhibit tumor growth; also recorded: No antitumor activity” in test [1] (carboplatin combination study, E7449 60 or 100 mg/kg PO QDx28, single agent); “did not significantly inhibit tumor growth; also recorded: No antitumor activity” in test [2] (E7449 100 mg/kg PO QDx28, single agent, 100 mg/kg).

Take `C=C1C[C@@H]2CC[C@@]34C[C@H]5OC6[C@@H](O[C@H]7CC[C@H](CC(=O)C[C@@H]8[C@@H](OC)[C@@H](C[C@H](O)CN)O[C@H]8C[C@H]8O[C@@H](CC[C@@H]1O2)C[C@@H](C)C8=C)O[C@@H]7[C@@H]6O3)[C@H]5O4` [E7389, 11, 15:18,21:24,28-triepoxy-7,9-ethano-12,15-methano-9H,15H-furo[3,2-i]furo[2′,3′:5,6]pyrano[4,3-b] [1,4]dioxacyclopentacosin-5(4H)-one, 2-[(2S)-3-amino-2-hydroxypropyl]hexacosahydro-3-methoxy-26-methyl-20,27-bis(methylene)-, (2R,3R,3aS,7R,8aS,9S,10aR,11S,12R,13aR,13bS,15S,18S,21S,24S,26R,28R,29aS)-methanesulfonate (salt)]: the “inhibition of tumor growth versus vehicle” value in test [1] (E7389 0.1 mg/kg IV Q4Dx4, single agent, P<0.05 on Day 42, 0.1 mg/kg) is “statistically significant effect; also recorded: Statistically significant inhibition of tumor growth”. For the same compound, the “antitumor effect (tumor volume), dose dependence” value in test [1] (E7389 0.05 and 0.1 mg/kg IV Q4Dx4, single agent) is “Dose dependent antitumor activity”. Further, the “tumor re-growth following treatment” value in test [2] (E7389 0.1 mg/kg IV Q4Dx3, single agent) is on record as “began re-growing within days of final E7389 dose”; in test [2] (E7389 0.4 mg/kg IV Q4Dx3, single agent, up to Day 52) it was “became tumor-free with no palpable tumors observed up to the date of study termination”. Moreover, the “antitumor effect (tumor volume)” value in test [2] (E7389 0.1 and 0.4 mg/kg IV Q4Dx3, single agent) is “Tumor regression”.
